Measurements published in publication PMC10361207, “Cannabinoid and Opioid Receptor Affinity and Modulation of Cancer-Related Signaling Pathways of Machaeriols and Machaeridiols from Machaerium Pers” (Molecules, 2023).

Assays:
[1] = target: T1, CB1 receptor (Homo sapiens, UniProt P21554); assay: Competitive radioligand binding assay, CB1; conditions: 10 μM; [3H]-CP55,940
T1 construct: expressed in transfected cells; host or cells: HEK293 (ATCC), stably transfected; membranes
Description: HEK293 cells stably transfected with δ, κ and μ opioid subtypes were a generous gift from Roth Laboratories (University of North Carolina at Chapel Hill, N.C., USA). CB and opioid cells were maintained as previously described.
Membranes were purified by first washing the cells with cold PBS and scraping the cells into cold 50 mM Tris-HCl, pH 7.4 buffer, which was centrifuged at 5200× g for 10 min at 4 °C; next, the supernatant was discarded, and the pellet was washed with more Tris-HCl buffer, homogenized via a Sonic Dismembrator (Fisher Scientific, Pittsburgh, PA, USA) and then centrifuged at 24,000× g for 40 min at 4 °C. Finally, the pellet was re-suspended in cold 50 mM Tris-HCl buffer, aliquoted into 2 mL vials and stored at −80 °C. The total membrane protein concentration was measured using a Pierce BCA Protein Assay Kit (Thermo Scientific, Rockford, IL, USA) as per the manufacturer’s protocol.
Cannabinoid and opioid competitive radioligand binding assays were performed as previously described. Saturation experiments were performed for all the receptors to determine the receptor concentration and radioligand dissociation constant (Kd) for the membrane. Percent displacements were evaluated for all the cannabinoid and opioid subtypes with a triplicate of a fixed concentration (10 µg/mL for extracts and fractions and 10 μM for purified compounds). […] Control/test compounds were dissolved in DMSO at 10 μg/mL for extracts and fractions and 10 μM for purified compounds. […] The percent displacement was calculated to represent the ability of the samples to displace the radioligand binding for a given cannabinoid or opioid receptor subtype.
The percent displacement was calculated as follows: 100−binding of compound−nonspecific binding/specific binding×100
The competitive binding assays were performed using 12 serial dilutions of each compound ranging from 0.002 to 300 μM (control compounds were serially diluted from 10 μM to 0.06 nM). The cannabinoid assays were incubated for 90 min at 37 °C with gentle agitation. The opioid assays were incubated for 60 min at room temperature. Bound radioligands were collected on GF/C (cannabinoid) or GF/B plates (opioid) and washed 10 times with ice-cold 50 mM Tris-HCl (pH 7.4)/0.1% BSA (cannabinoid) or ice-cold 50 mM Tris-HCl (pH 7.4) (opioid). Radiodetection was measured with 50 µL (cannabinoid) or 25 µL (opioid) of MicroScint^TM-20 on a TopCount NXT HTS Microplate Scintillation Counter (PerkinElmer, Waltham, MA, USA). The IC50 and Ki values were calculated via a non-linear curve fit model using GraphPad Prism 5.0 software (GraphPad Software, Inc., San Diego, CA, USA). Each compound was tested in triplicate unless stated otherwise.

[2] = system: minimal thymidine kinase promoter (pTK); assay: Luciferase control vector pTK, HeLa; type: cell-based, human; conditions: HeLa cells; up to 50 µM; no inducer
Description: (§1) Hela cells (or T98G cells) from ATCC were plated in white opaque 384-well plates at a density of 4300 cells/well in 30 µL of growth medium (DMEM with 10% FBS and 1% Pen/Strep). The next day, the medium was aspirated and replaced with DMEM containing 1% FBS. The cells were transfected with respective plasmids using X-tremeGENE HP DNA transfection reagent (Roche). After 24 h of transfection, the test agents were added to the transfected cells, followed 30 min later by an inducing agent: interleukin 6 (IL-6) for Stat3, TGF-β for Smad, m-wnt3a for Wnt and PMA for AP-1, NF-κB, E2F, Myc, ETS, Notch and Hedgehog. No inducer was added for FoXO and pTK. After 4 h or 6 h of induction, the cells were lysed via the addition of the One-Glo luciferase assay system (Promega; Madison, WI). The light output was detected in a GloMax®-Multi+ Detection System with Instinct® Software (Promega E 8051). This luciferase assay determines if the test agent is able to inhibit the activation of cancer-related signaling pathways. In the case of FoxO, the enhanced luciferase activity via the test agent was assessed.

[3] = system: ETS; assay: Luciferase reporter assay, ETS, HeLa; type: cell-based, human
Description: as §1

[4] = system: Stat3; assay: Luciferase reporter assay, Stat3, HeLa; type: cell-based, human
Description: as §1

[5] = system: AP-1; assay: Luciferase reporter assay, AP-1, HeLa; type: cell-based, human; conditions: Homo sapiens; for IC50: read-out: IC50, Ap-1 (PMA)
Description: as §1

[6] = system: NF-κB; assay: Luciferase reporter assay, NF-κB, HeLa; type: cell-based; conditions: Homo sapiens; for IC50: HeLa cells, inducer PMA, dash: not inhibited by more than 40% at 50 µmol/L
Description: as §1

[7] = system: E2F; assay: Luciferase reporter assay, E2F, HeLa; type: cell-based, human; conditions: Homo sapiens, HeLa; for IC50: read-out: IC50, E2F (PMA)
Description: as §1

[8] = system: FoxO; assay: Luciferase reporter assay, FoxO, HeLa; type: cell-based; conditions: Homo sapiens, no inducer; for IC50: HeLa cells, dash: no activity detected, read-out: IC50, FoxO (None)
Description: as §1

[9] = system: Smad2/3; assay: Luciferase reporter assay, Smad2/3, HeLa; type: cell-based, human
Description: as §1

[10] = Homo sapiens, HeLa cells, inducer PMA, dash: not inhibited by more than 40% at 50 µmol/L
[11] = Homo sapiens, HeLa cells, inducer IL6, dash: not inhibited by more than 40% at 50 µmol/L
[12] = AP1, read-out: Additive effect (in % inhibition): percentage of luciferase induction, AP-1 (PMA)
[13] = read-out: Additive effect (in % inhibition): percentage of luciferase induction, E2f (PMA)
[14] = Homo sapiens, HeLa cells, inducer TGF-beta, dash: not inhibited by more than 40% at 50 µmol/L

T1 sequence (P21554 whole entry): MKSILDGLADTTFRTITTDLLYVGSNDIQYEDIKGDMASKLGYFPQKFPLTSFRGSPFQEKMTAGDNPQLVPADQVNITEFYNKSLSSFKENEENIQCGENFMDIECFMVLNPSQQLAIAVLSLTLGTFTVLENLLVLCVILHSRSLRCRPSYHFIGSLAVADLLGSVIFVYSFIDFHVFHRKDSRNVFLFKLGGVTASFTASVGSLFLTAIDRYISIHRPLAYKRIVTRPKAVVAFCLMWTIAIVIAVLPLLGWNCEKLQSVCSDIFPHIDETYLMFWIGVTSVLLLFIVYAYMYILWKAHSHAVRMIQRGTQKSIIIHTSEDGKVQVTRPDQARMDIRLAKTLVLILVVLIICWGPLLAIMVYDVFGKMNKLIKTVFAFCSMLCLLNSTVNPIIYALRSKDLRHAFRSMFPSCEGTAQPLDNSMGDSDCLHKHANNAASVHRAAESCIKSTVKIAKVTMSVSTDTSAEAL

| SMILES | Percent displacement, CB1 [1] | Inhibition of luciferase expression driven by pTK [2] | IC50 [3, 10] | IC50 [4, 11] | IC50 [5] | IC50 [6] | IC50 [7] | IC50 [8] | IC50 [9, 14] | also measured |
| --- | --- | --- | --- | --- | --- | --- | --- | --- | --- | --- |
| C=C(C)[C@H]1CC[C@H](C)C[C@@H]1c1c(O)cc(/C=C/c2ccccc2O)cc1O [compound 6, machaeridiol B] | 45.2% | no inhibition | > 50 µM | 4.7 µM | 5.9 µM | 0.5 µM | 5.7 µM | > 50 µM | 1.2 µM | IC50, ETS (PMA) ([3]; HeLa cells, inducer PMA, dash: not inhibited by more than 40% at 50 µmol/L): inactive; inhibition at 2 µM ([3]; Homo sapiens, HeLa, 6 alone at 2 µM, compared to pTK as control, read-out: Additive effect (in % inhibition): percentage of luciferase induction, ETS (PMA)): 107%; inhibition at 2 µM ([4]; Homo sapiens, HeLa, 6 alone at 2 µM, compared to pTK as control, read-out: Additive effect (in % inhibition): percentage of luciferase induction, Stat3 (IL-6)): 82%; inhibition at 2 µM [5, 12]: 70%; inhibition at 2 µM ([6]; HeLa, 6 alone at 2 µM, compared to pTK as control, read-out: Additive effect (in % inhibition): percentage of luciferase induction, NF-κB (PMA)): 76%; inhibition at 2 µM [7, 13]: 80%; inhibition at 2 µM ([8]; HeLa, 6 alone at 2 µM, read-out: Additive effect (in % inhibition): percentage of luciferase induction, FoxO (None)): 105%; inhibition at 2 µM ([9]; Homo sapiens, HeLa, 6 alone at 2 µM, compared to pTK as control, read-out: Additive effect (in % inhibition): percentage of luciferase induction, Smad2/3 (TGF-β)): 109% |
| C[C@H]1CC[C@H]2[C@H](C1)c1c(O)cc(/C=C/c3ccccc3O)cc1OC2(C)C [compound 3, machaeriol C] | 43.6% | no inhibition | 15 µM | 38 µM | 12 µM | 11 µM | 14 µM | > 50 µM | 37 µM | inhibition at 10 µM ([3]; Homo sapiens, HeLa, 3 alone at 10 µM, compared to pTK as control, read-out: Additive effect (in % inhibition): percentage of luciferase induction, ETS (PMA)): 66%; IC50, Stat3 (IL6) ([4]; HeLa cells, inducer IL6, dash: not inhibited by more than 40% at 50 µmol/L): lacked activity; inhibition at 10 µM ([4]; Homo sapiens, HeLa, 3 alone at 10 µM, compared to pTK as control, read-out: Additive effect (in % inhibition): percentage of luciferase induction, Stat3 (IL-6)): 92%; inhibition at 10 µM [5, 12]: 61%; inhibition at 10 µM ([6]; HeLa, 3 alone at 10 µM, compared to pTK as control, read-out: Additive effect (in % inhibition): percentage of luciferase induction, NF-κB (PMA)): 70%; inhibition at 10 µM [7, 13]: 50%; inhibition at 10 µM ([8]; HeLa, 3 alone at 10 µM, read-out: Additive effect (in % inhibition): percentage of luciferase induction, FoxO (None)): 120%; IC50, Smad2/3 (TGF-beta) ([9]; HeLa cells, inducer TGF-beta, dash: not inhibited by more than 40% at 50 µmol/L): lacked activity; inhibition at 10 µM ([9]; Homo sapiens, HeLa, 3 alone at 10 µM, compared to pTK as control, read-out: Additive effect (in % inhibition): percentage of luciferase induction, Smad2/3 (TGF-β)): 93% |
